Here are results for nine compounds from patent publication US10994015B2, “EGFR proteolysis targeting chimeric molecules and associated methods of use” (Arvinas Operations, Inc., priority 2016, dated 2021).

Some results are limits rather than exact numbers.

One test concerns the target EGFR L858R/T790M (Homo sapiens (Human), UniProt P00533, L858R/T790M). The test is described as follows: TR-FRET assay for ERBB kinases. Format: biochemical. To be noted: geometric mean if measured more than once. As for the experimental part: (§1) TR-FRET Assay for ERBB Kinases
(§2) All compounds and PROTACs were serially diluted in three-fold increments using 100% DMSO, followed by an intermediate 10-fold dilution using Buffer A (50 mM HEPES, pH 7.5, 50 mM NaCl, 10 mM MgCl2, 1 mM DTT, and 0.1% Pluronic F-68). […] Next, 10 uL of protein kinase in Buffer A was added to each well of the assay plate and pre-incubated with compound for 10 minutes. Kinase reactions were then initiated by addition of 5 uL substrate mix containing 3 mM ATP and 30 uM fluorescein-labeled Poly-GluTyr (Thermo Fisher, #PV3610) in Buffer A and allowed to proceed for 10 minutes at room temperature. Reactions were quenched by addition of a 5 uL mixture containing 5 nM LanthaScreen® Tb-pY20 Antibody (Thermo Fisher, #PV3552) and 40 mM EDTA in Buffer A. Assay plates were then read using a Synergy2 (Biotek Instruments, Winooski, Vt.) via excitation thru a 340/20 nm bandpass filter and emission collected thru 490/10 nm (donor) and 520/25 nm (acceptor) bandpass filters.

A further test concerns the target EGFR L858R/T790M/C797S (Homo sapiens (Human), UniProt P00533, C797S/L858R/T790M). The test is described as follows: TR-FRET assay for ERBB kinases. The conditions noted are these: geometric mean if measured more than once. Format: biochemical. As for the experimental part:
as §1, §2
On the technique in general: In TR-FRET formats the signal depends on donor and acceptor labels being close together.

Another test addresses EGFR WT (Homo sapiens (Human), UniProt P00533). As to the kind of experiment: TR-FRET assay for ERBB kinases. Format: biochemical. To be noted: geometric mean if measured more than once. As to the method:
as §1, §2

For test [1], the target named is EGFR L858R/T790M/C797S triple mutant (H520*) (Homo sapiens (Human), UniProt P00533, C797S/L858R/T790M). As to the kind of experiment: EGFR protein degradation assay (Western blot). To be noted: 72 hours, 300 nM to 10 nM. The test is classed as cell-based. As for the experimental part: (§3) EGFR Protein Degradation assay
Cells were incubated overnight at 37° C., 5% CO2 prior to compound addition. A 10 mM compound stock in DMSO was serially diluted in DMSO to provide the following stock concentrations: 1, 0.3, 0.1, 0.03 and 0.01 mM. An appropriate volume of each compound dilution, together with a DMSO vehicle control, was added to media to provide a 2× compound solution. […] At the end of the compound treatment, cells were washed once with ice-cold phosphate-buffered saline (PBS) and treated with lysis solution (1× lysis buffer, Cell Signaling Technologies (CST #9803) supplemented with Piarce™ protease inhibitors, #A32953, Thermo Fisher Scientific, TFS). Lysates were collected and clarified of cell debris by spinning at 10K rpm for 10 minutes. A specific volume of supernatant was retrieved for protein quantification (Pierce™ BCA kit, TFS #23225) and for Western analysis. Loading buffer supplemented with EDTA and reducing agent was added to each supernatant. A specific volume of supernatant (determined by protein assay: […] loaded per sample) was loaded into a NuPAGE™ 4-12% Bis-Tris gel (TFS). Samples were run at 165V in MOPS running buffer for 2 hours and then transferred to PVDF blotting membrane using a dry blotting system (iBlot2, TFS). Membranes were blocked in Tris-buffered saline supplemented with Tween, 0.1% (TBST) containing 5% non-fat dry milk, (AmericanBio). Following block, membranes were washed once with TBST. […] Membranes were washed 3× with TBST prior to addition of secondary antibody (1:10 000, anti-rabbit HRP-linked, CST #7074) in TBST with 3% BSA and then incubated at room temperature for one hour. Membranes were then washed 3× with TBS and signal developed by exposure to developer (SuperSignal West Femto, TFS) for 5 minutes. Membranes were then immediately imaged using a BioRad Chemidoc.

The next test deals with EGFR Exon20NPG (Homo sapiens (Human), UniProt P00533, INS770NPG). The test is described as follows: TR-FRET assay for ERBB kinases. The test is classed as biochemical. To be noted: geometric mean if measured more than once. As for the experimental part:
as §1
All compounds and PROTACs were serially diluted in three-fold increments using 100% DMSO, followed by an intermediate 10-fold dilution using Buffer A (50 mM HEPES, pH 7.5, 50 mM NaCl, 10 mM MgCl2, 1 mM DTT, and 0.1% Pluronic F-68). Two microliters of serially diluted compound or PROTAC were then transferred to black 384-well Proxiplates (PerkinElmer, #6008260) using an Integra Viaflo96. Next, 10 uL of protein kinase in Buffer A was added to each well of the assay plate and pre-incubated with compound for 10 minutes. Kinase reactions were then initiated by addition of 5 uL substrate mix containing 3 mM ATP and 30 uM fluorescein-labeled Poly-GluTyr (Thermo Fisher, #PV3610) in Buffer A and allowed to proceed for 10 minutes at room temperature. Reactions were quenched by addition of a 5 uL mixture containing 5 nM LanthaScreen® Tb-pY20 Antibody (Thermo Fisher, #PV3552) and 40 mM EDTA in Buffer A. Assay plates were then read using a Synergy2 (Biotek Instruments, Winooski, Vt.) via excitation thru a 340/20 nm bandpass filter and emission collected thru 490/10 nm (donor) and 520/25 nm (acceptor) bandpass filters.

For test [2], the target named is EGFR L858R/T790M double mutant (H1975) (Homo sapiens (Human), UniProt P00533, L858R/T790M). As to the kind of experiment: EGFR protein degradation assay (Western blot). Format: cell-based. The conditions noted are these: 72 hours, 300 nM to 10 nM. As for the experimental part: as §3
Cells expressing the appropriate form of EGFR were seeded in 6-well plates (300,000 cells per well) and allowed to adhere to the plate overnight. […] To harvest cells, media was removed and cells were washed once with ice-cold phosphate-buffered saline (PBS) prior to the addition of 400 μl lysis buffer (Cell Signaling Technology) supplemented with a protease inhibitor cocktail (Thermo Scientific). Cells were scraped from the plate and the cell lysate transferred to an Eppendorf tube and then clarified by a single spin at 10 000 rpm for 10 minutes. The protein concentration of each lysate was determined (BCA kit, Thermo Scientific) prior to the addition of loading buffer (Invitrogen) and reducing agent (Invitrogen). 10 μg protein of each lysate was loaded on an SDS/PAGE gel and run at 165V for 2 hours. Following transfer to a PVDF membrane (iBlot2, Thermo Fisher Scientific), the membrane was blocked in Tris-buffered saline containing 0.1% Tween-20 (TBS-T) and supplemented with 5% powdered milk for 1 hour. Membranes were then probed with EGFR and tubulin (loaded control) primary antibodies in TBS-T containing 3% bovine serum albumin (BSA) overnight at 4° C. Membranes were washed thrice with TBS-T before incubation with secondary antibody in TBS-T containing 3% bovine serum albumin (BSA) and incubated for 1 hour at room temperature. Following 3 further washes with TBS, membrane proteins of interest were detected by enzyme-linked chemiluminescence (ECL) using a Chemidoc (Bio-Rad).
Background: A western blot detects proteins with antibodies after separation by electrophoresis.

Sequence of EGFR L858R/T790M (P00533 25-1210 T790M/L858R): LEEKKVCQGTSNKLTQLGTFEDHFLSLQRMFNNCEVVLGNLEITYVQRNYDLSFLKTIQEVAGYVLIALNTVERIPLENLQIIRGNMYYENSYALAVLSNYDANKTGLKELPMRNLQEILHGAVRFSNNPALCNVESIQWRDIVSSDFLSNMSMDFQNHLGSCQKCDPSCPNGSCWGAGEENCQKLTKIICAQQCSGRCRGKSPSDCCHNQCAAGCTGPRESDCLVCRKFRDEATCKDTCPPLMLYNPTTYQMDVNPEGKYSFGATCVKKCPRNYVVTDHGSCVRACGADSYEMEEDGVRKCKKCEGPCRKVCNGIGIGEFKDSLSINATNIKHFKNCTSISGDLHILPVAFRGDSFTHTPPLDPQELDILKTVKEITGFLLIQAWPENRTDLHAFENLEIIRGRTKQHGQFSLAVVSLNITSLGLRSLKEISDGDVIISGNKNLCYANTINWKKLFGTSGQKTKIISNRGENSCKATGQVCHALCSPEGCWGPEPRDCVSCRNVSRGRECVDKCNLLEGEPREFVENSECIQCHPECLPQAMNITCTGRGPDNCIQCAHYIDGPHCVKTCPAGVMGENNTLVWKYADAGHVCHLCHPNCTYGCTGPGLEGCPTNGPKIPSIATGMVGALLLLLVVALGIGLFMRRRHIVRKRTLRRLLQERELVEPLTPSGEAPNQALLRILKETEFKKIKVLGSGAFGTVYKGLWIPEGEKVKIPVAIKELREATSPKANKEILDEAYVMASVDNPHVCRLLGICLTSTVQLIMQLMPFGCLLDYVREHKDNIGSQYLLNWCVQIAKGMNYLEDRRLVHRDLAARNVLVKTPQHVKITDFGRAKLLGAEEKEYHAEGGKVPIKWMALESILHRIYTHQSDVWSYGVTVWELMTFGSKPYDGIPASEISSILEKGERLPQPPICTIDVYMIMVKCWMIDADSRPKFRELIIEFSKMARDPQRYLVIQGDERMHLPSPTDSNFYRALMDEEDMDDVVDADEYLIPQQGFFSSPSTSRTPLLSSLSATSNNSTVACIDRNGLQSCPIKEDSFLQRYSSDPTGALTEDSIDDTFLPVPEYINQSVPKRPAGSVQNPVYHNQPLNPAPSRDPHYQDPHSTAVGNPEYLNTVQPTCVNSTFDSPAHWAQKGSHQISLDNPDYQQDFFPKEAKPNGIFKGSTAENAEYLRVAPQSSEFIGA
Sequence of EGFR L858R/T790M double mutant (H1975) (P00533 25-1210 T790M/L858R): as above
Sequence of EGFR WT (P00533 25-1210): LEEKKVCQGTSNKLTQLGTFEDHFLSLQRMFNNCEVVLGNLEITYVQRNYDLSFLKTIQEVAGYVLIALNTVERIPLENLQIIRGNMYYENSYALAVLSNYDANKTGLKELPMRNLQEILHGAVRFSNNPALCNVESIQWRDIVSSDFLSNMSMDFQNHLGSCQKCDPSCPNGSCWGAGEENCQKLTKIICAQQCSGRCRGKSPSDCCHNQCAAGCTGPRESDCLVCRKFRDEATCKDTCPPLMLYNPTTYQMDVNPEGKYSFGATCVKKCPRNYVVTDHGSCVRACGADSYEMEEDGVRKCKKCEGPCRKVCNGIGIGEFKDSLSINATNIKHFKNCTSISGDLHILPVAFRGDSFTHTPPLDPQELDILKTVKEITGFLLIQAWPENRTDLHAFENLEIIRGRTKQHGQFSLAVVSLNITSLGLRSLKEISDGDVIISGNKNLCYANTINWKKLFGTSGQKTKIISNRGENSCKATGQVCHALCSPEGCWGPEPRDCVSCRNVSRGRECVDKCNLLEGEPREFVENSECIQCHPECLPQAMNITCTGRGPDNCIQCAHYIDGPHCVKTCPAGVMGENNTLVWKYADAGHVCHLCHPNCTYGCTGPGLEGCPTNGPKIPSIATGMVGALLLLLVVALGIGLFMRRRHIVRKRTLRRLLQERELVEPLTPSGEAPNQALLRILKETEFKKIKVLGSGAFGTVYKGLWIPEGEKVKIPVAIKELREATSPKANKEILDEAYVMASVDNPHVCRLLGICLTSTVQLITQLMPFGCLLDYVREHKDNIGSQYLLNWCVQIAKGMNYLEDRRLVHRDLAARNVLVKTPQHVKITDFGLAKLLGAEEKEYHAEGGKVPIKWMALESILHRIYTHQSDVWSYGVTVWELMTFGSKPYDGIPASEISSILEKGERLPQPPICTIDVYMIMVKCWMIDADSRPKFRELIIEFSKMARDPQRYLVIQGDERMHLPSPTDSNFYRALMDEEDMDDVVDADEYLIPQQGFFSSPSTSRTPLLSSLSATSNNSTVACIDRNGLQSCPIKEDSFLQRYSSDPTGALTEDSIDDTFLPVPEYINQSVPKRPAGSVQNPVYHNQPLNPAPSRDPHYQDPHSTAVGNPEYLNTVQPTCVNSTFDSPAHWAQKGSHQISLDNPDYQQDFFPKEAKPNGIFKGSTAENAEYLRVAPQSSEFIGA
Sequence of EGFR L858R/T790M/C797S (P00533 25-1210 T790M/C797S/L858R): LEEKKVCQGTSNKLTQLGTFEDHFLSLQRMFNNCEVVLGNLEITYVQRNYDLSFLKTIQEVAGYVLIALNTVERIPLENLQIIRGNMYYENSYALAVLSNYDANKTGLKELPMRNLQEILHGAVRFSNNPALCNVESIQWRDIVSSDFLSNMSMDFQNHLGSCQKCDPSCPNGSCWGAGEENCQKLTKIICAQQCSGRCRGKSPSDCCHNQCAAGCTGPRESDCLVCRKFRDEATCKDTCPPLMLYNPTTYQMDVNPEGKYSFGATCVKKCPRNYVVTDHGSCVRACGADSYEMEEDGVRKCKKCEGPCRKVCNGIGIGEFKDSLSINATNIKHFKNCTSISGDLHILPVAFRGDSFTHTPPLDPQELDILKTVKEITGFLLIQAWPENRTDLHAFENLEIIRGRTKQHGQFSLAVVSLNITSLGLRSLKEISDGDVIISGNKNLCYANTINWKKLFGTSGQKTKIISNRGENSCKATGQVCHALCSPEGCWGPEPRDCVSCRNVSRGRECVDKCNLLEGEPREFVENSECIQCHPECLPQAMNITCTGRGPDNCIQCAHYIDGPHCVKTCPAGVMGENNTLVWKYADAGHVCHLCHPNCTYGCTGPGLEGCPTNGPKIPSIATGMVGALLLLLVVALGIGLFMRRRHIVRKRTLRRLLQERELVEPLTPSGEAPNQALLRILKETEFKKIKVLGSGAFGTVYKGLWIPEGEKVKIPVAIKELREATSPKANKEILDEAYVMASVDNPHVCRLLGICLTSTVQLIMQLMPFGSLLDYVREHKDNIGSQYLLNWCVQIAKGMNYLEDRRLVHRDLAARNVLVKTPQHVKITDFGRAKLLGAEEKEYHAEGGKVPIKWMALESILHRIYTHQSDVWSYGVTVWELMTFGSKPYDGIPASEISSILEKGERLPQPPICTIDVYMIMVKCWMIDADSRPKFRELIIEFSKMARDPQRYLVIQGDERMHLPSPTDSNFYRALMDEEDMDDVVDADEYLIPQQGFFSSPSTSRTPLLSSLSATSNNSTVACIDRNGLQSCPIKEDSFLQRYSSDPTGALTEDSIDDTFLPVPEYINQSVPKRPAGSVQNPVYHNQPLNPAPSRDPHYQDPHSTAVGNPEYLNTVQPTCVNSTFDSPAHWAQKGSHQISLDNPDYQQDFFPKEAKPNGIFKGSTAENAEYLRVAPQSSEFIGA

On to `O=C1CCC(N2C(=O)c3ccc(N4CCN(CC5CCN(CCCc6cccc7c6C(=O)N(C(C(=O)Nc6nccs6)c6cc(F)ccc6O)C7)CC5)CC4)cc3C2=O)C(=O)N1` (centres unmarked) [compound 294], for which the IC50 at EGFR L858R/T790M is 0.81 µM; at EGFR L858R/T790M/C797S, 0.17 µM; on EGFR WT, 3.5 µM. The “EGFR protein remaining, EGFR L858R/T790M/C797S triple mutant” value in test [1] is “C (>80% EGFR protein remaining after 72 hours of incubation with the test compound at a concentration of 300 nM)”.
In the same order, the values of `O=C1CCC(N2C(=O)c3cccc(NCCOCCOCCOCCOCCOCCOCCCc4cccc5c4C(=O)N(C(C(=O)Nc4nccs4)c4cc(F)ccc4O)C5)c3C2=O)C(=O)N1` (centres unmarked) [compound 300] are 20 µM, 3.1 µM, 2.7 µM and “C (>80% EGFR protein remaining after 72 hours of incubation with the test compound at a concentration of 300 nM)”.
For `Cc1ncsc1-c1ccc([C@H](C)NC(=O)[C@@H]2C[C@@H](O)CN2C(=O)[C@@H](NC(=O)COCCOCCOCCc2ccc(OC3CCN(c4nccc(Nc5cc6c(cn5)nc(C)n6C(C)C)n4)CC3)cc2)C(C)(C)C)cc1` [Example 291, (2S,4R)-1-((S)-2-(Tert-butyl)-14-(4-((1-(4-((1-isopropyl-2-methyl-1H-imidazo[4,5-c]pyridin-6-yl)amino)pyrimidin-2-yl)piperidin-4-yl)oxy)phenyl)-4-oxo-6,9,12-trioxa-3-azatetradecanoyl)-4-hydroxy-N—((S)-1-(4-(4-methylthiazol-5-yl)phenyl)ethyl)pyrrolidine-2-carboxamide] the same measures were > 60 µM, > 60 µM, 14 µM and “C (>80% EGFR protein remaining after 72 hours of incubation with the test compound at a concentration of 300 nM)”.
On to `O=C1CCC(N2C(=O)c3ccc(N4CCC(CN5CCC(OCC#Cc6cccc7c6C(=O)N(C(C(=O)Nc6nccs6)c6cc(F)ccc6O)C7)CC5)CC4)cc3C2=O)C(=O)N1` (centres unmarked) [compound 290], for which the half-inhibitory concentration (IC50) on EGFR L858R/T790M worked out at 2.7 µM; on EGFR L858R/T790M/C797S it was 0.14 µM; at EGFR WT it was 1.1 µM. Moreover, the “EGFR protein remaining, EGFR L858R/T790M/C797S triple mutant” value in test [1] is “B (≤80% and >50% EGFR protein remaining after 72 hours of incubation with the test compound at a concentration between 300 nM and 10 nM)”.
Regarding `COC1CCN(c2nccc(Nc3cc4c(cn3)nc(COCCCN3CCN(CCCOCC(=O)N[C@H](C(=O)N5C[C@H](O)C[C@H]5C(=O)N[C@@H](C)c5ccc(-c6scnc6C)cc5)C(C)(C)C)CC3)n4C(C)C)n2)CC1` [Example 85, (2S,4R)-4-hydroxy-1-((S)-2-(2-(3-(4-(3-((1-isopropyl-6-((2-(4-methoxypiperidin-1-yl)pyrimidin-4-yl)amino)-1H-imidazo[4,5-c]pyridin-2-yl)methoxy)propyl)piperazin-1-yl)propoxy)acetamido)-3,3-dimethylbutanoyl)-N—((S)-1-(4-(4-methylthiazol-5-yl)phenyl)ethyl)pyrrolidine-2-carboxamide], the IC50 was 16 µM on EGFR L858R/T790M, 3.9 µM on EGFR L858R/T790M/C797S, > 30 µM on EGFR WT and > 30 µM on EGFR Exon20NPG. In addition, the “EGFR protein remaining, EGFR L858R/T790M double mutant” value in test [2] is “C (>80% EGFR protein remaining after 72 hours of incubation with the test compound at a concentration of 300 nM)”.
Consider `O=C1CCC(N2C(=O)c3ccc(OCCN4CCN(CCCC#Cc5cccc6c5C(=O)N(C(C(=O)Nc5nccs5)c5cc(F)ccc5O)C6)CC4)cc3C2=O)C(=O)N1` (centres unmarked) [compound 94], for which the IC50 at EGFR L858R/T790M came out at 6 µM; at EGFR L858R/T790M/C797S it was 1.8 µM; at EGFR WT, 2.1 µM; at EGFR Exon20NPG it was 1.5 µM. Besides, the “EGFR protein remaining, EGFR L858R/T790M double mutant” value in test [2] is reported as “C (>80% EGFR protein remaining after 72 hours of incubation with the test compound at a concentration of 300 nM)”.
In the same order, the values of `Cc1ncsc1-c1ccc([C@H](C)NC(=O)[C@H]2C[C@H](O)CN2C(=O)[C@@H](NC(=O)COCCOCCOc2ccc(-c3nccc(Nc4cc5c(cn4)nc(C)n5C(C)C)n3)cc2)C(C)(C)C)cc1` [Example 276, (2R,4S)-4-hydroxy-1-((S)-2-(2-(2-(2-(4-(4-((1-isopropyl-2-methyl-1H-imidazo[4,5-c]pyridin-6-yl)amino)pyrimidin-2-yl)phenoxy)ethoxy)ethoxy)acetamido)-3,3-dimethylbutanoyl)-N—((S)-1-(4-(4-methylthiazol-5-yl)phenyl)ethyl)pyrrolidine-2-carboxamide] are 23 µM, 29 µM, 20 µM, > 30 µM and “C (>80% EGFR protein remaining after 72 hours of incubation with the test compound at a concentration of 300 nM)”.
In the same order, the values of `COC1CCN(c2nccc(Nc3cc4c(cn3)nc(COCCOCCN3CCN(CCOc5ccc6c(c5)C(=O)N(C5CCC(=O)NC5=O)C6=O)CC3)n4C(C)C)n2)CC1` (centres unmarked) [compound 88] are 11 µM, 9.4 µM, > 30 µM, 3.1 µM and “C (>80% EGFR protein remaining after 72 hours of incubation with the test compound at a concentration of 300 nM)”.
For `O=C1CCC(N2C(=O)c3ccc(OCCOCCOCCOCCOCCOCC#Cc4cccc5c4C(=O)N([C@@H](C(=O)Nc4nccs4)c4cc(F)ccc4O)C5)cc3C2=O)C(=O)N1` (some centres unmarked) [compound 263] the same measures were 11 µM, 0.79 µM, 8.6 µM, 12 µM and “C (>80% EGFR protein remaining after 72 hours of incubation with the test compound at a concentration of 300 nM)”.

Broadly, the IC50 is the concentration at which inhibition is half-maximal.
